Test results: US12357621B2, “BET inhibitors as a treatment for myelofibrosis” (Impact Biomedicines, Inc., priority 2021, dated 2025)
Where two headings read alike, the source gives them in different places. Values belong to the molecule of their own block, whether it stands above or below them.

Assays:
[1] = 125 mg QD; clinical studies; cited from earlier work
[2] = tested on: primary human myelofibrosis samples; test: Colony formation assay in primary myelofibrosis samples (Example 2); format: cell-based; conditions: for IC50: Homo sapiens
Protocol: (§1) Bone marrow or peripheral blood mononuclear cells from myelofibrosis (MF) patients were directly seeded in semisolid Methocult media (H3404) with Compound (I) alone, (at concentrations ranging from 1.25 to 10 nM) or in combination with Fed (at 100 and 300 nM) or Rux (at 30 and 100 nM). Treatment was added at the beginning and maintained throughout the 14-day incubation period without compound washout.
(§2) Colony forming unit (CFU) data acquisition and automatic colony counting were performed using the STEMvision device and software (StemCell Technologies, Vancouver, Canada). Counting corrections according to standard criteria were done manually by a trained user. GraphPad Prism 7 was used for data plotting and analysis.

[3] = tested on: cell models expressing mutationally active JAK2V617F or FLT3ITD; conditions: cited from earlier work
[4] = tested on: mouse models of JAK2V617F-driven myeloproliferative disease; conditions: in vivo; cited from earlier work
[5] = First-in-human PK study of Compound (I) (Example 6); format: in vivo; conditions: for Cmax: Cycle 2 Day 5, 5 days on/2 days off, read-out: Cmax Cycle 2 Steady State (geometric mean)
Protocol: A first-in-human study was conducted on Compound (I) with select advanced tumors and hematologic malignancies. PK data was available from 65 subjects across 5 doses and 3 schedules. Intensive samples were collected on Cycle 1 Day 1 and Cycle 2 Day 5, Day 7, or Day 14 based on dosing schedule (5 days on/2 days off, 7 days on/14 days off, and 14 days on/7 days off).

HEL92.1.7 cells [6] = test: CellTiter Glo cell viability assay (Example 5); format: cell-based; conditions: for IC50: Homo sapiens
Protocol: (§3) Cells were seeded in 96-well plates at 10,000 cells per well in 100 μL of media containing either 0.1% DMSO or varying concentrations of drug. Cell viability was determined 3 days and 5 days later via the CellTiter GloLuminescent Cell Viability Assay from Promega (Madison, WI) according to the manufacturer's protocol. Specifically, 50 μL of reagent was added to each well and plates were incubated for 10 minutes in the dark to stabilize the luminescent signal. Luminescence was then detected using a chemiluminescence detection system (EnVision Multimode Microplate Reader; PerkinElmer).

SET-2 cells [7] = test: CellTiter Glo cell viability assay (Example 5); format: cell-based; conditions: for IC50: Homo sapiens
Protocol: as §3

[8] = tested on: bone marrow CD34+ cells from healthy volunteers; test: Colony-forming assay with normal hematopoietic progenitors (Example 2); format: cell-based; conditions: Homo sapiens, 336 h, healthy donors, 14 days
Protocol: as §1
To test the effects of Compound (I) on the functionality of normal hematopoietic progenitors, colony-forming assays were also done with bone marrow CD34^+ cells from healthy volunteers using the same conditions of treatment as described for MF samples.
as §2

HEL92.1.7 cells [9] = test: CellTiter-Glo proliferation/viability assay, single agent and JAKi combination (Example 1); format: cell-based; conditions: single agent; for IC50: 3 days incubation, CTG
Protocol: (§4) HEL92.1.7 and SET-2 are post-MPN secondary acute myeloid leukemia (sAML) cell lines that harbor the JAK2 V617F mutation and serve as cell line models of the malignant clones driving disease in MPNs.
(§5) HEL92.1.792.1.7 (post-MPN sAML), a homozygous mutant (V617F), SET-2 (post-MPN sAML), a heterozygous mutant (V617F), were cultured in Roswell Park Memorial Institute (RPMI) 1640 medium (ATCC) supplemented with 10% or 20% fetal b ovine serum (FBS) (Corning) for HEL92.1.792.17 or SET-2 respectively, 2 mM L-glutamine (L-glu) (Gibco), and non-essential amino acid 1× (NEAA) cell culture supplement (Gibco). WI-38 primary lung fibroblastWI-38 were cultured in Eagle's Minimum Essential Medium (EMEM) (ATCC) with 10% FBS, 2 mM L-glu, and 1× NEAA.
(§6) CellTiter-Glo® (CTG), a luminescent dye that measures adenosine-5′-triphosphate (ATP), was used to quantify the cell proliferation in the 3 cell types in duplicate. Compound (I) was pre-spotted into 384-well plates (diluted in final dimethyl sulfoxide [DMSO] concentration of 0.1% for assay volume of 50 μL). A 10-point dose-response starting at […] with a 4-fold dilution that included one DMSO point and nine drug points was tested for each cell line. The JAK inhibitors (JAKi) Rux and Fed were also pre-spotted at concentrations of 0, 0.03, 0.1, 0.3, and 0.6 μM and HEL92.1.7 constant for each 10-point the Compound (I) dose-response curve (DRC) to produce five compounds of formula (I) DRCs for each JAKi in each cell line.
(§7) A cell suspension volume of 50 μL at their respective seeding densities was added to 384-well plates containing Compound (I) plus JAKi. The effect of Compound (I) single agent or JAKi combination on the proliferation/viability of cells was assessed after 3 days of incubation. Twenty-five microliters of CTG per well was then dispensed to the cell suspension, and ATP released by viable cells was measured after a 30-minute incubation as relative luminescence units (RLU) using an EnVision plate reader (PerkinElmer, Covina, CA). Cytotoxicity was indicated by a lower ATP level in the media after 3-day drug treatment compared to the Day 0 ATP level. Day 0 CTG was read for HEL92.1. and SET-2 suspension cell lines while the Day 0 CTG read for WI-38 could not be read because it is an adherent cell line.
(§8) Percent growth (% Growth) was calculated with the equation [% Growth=(Day 5 RLU—Day 0 RLU)/(Day 0 RLU)] while percent DMSO (% DMSO) was calculated with the equation [% DMSO=(Treatment RLU/DMSO RLU)×100]. All data was analyzed by GraphPad Prism 7 with the XY analyses nonlinear regression curve fit using the parameters for “log(inhibitor) vs. response—Variable slope (four parameters).” Cytotoxicity was called if any part of the DRC CTG signal went below the Day 0 CTG read and cytostatic effects were indicated by the DRC CTG signal staying above the Day 0 line.
(§9) Combination analysis was performed with software Combenefit version 2.021. Combination matrix plots describing additivity effects were generated with the Highest Single-Agent (HSA) model, combination matrix plots describing synergy effects were generated with the Bliss model, and the HSA and Bliss scores for each combination matrix plot were tabulated. An arbitrary cut off-of 10 for HSA and Bliss scores was used to reflect significant additivity and synergy, respectively. […]

SET-2 cells [10] = test: as above; format: cell-based; conditions: single agent
Protocol: as §4, §5, §6, §7, §8, §9

Compound: Cc1noc2c1-c1ccccc1C(c1ccc(Cl)cc1)=N[C@H]2CC(N)=O [CPI-0610]
Cmax [1]: 4000 nM
T1/2 [1]: 16 h

IC50 ([2]; sample MF 18 (JAK2), ruxolitinib alone, read-out: IC50 RUX): 0.0355 µM
IC50 ([2]; sample MF 22 (WT), ruxolitinib alone, read-out: IC50 RUX): 0.212 µM
IC50 ([2]; sample MF 29 (JAK2), ruxolitinib alone, read-out: IC50 RUX): 0.212 µM
IC50 ([2]; sample MF 31 (CALR), ruxolitinib alone, read-out: IC50 RUX): 0.284 µM
IC50 ([2]; sample MF 33 (CALR), ruxolitinib alone, read-out: IC50 RUX): 0.862 µM
IC50 ([2]; sample MF 38 (WT), ruxolitinib alone, read-out: IC50 RUX): 0.217 µM
IC50 ([2]; sample MF 54 (JAK2), ruxolitinib alone, read-out: IC50 RUX): 0.686 µM
IC50 ([2]; sample MF 63 (CALR), ruxolitinib alone, read-out: IC50 RUX): 0.0706 µM
IC50 ([2]; sample MF 76 (JAK2), ruxolitinib alone, read-out: IC50 RUX): 0.686 µM
IC50 ([2]; sample MF 77 (JAK2), ruxolitinib alone, read-out: IC50 RUX): 0.528 µM
Compound: N#CC[C@H](C1CCCC1)n1cc(-c2ncnc3[nH]ccc23)cn1 [ruxolitinib]

Compound: Cc1cnc(Nc2ccc(OCCN3CCCC3)cc2)nc1Nc1cccc(S(=O)(=O)NC(C)(C)C)c1 [fedratinib]
apoptotic cell death [3]: induced
cell proliferation [3]: inhibited
phosphorylation of STAT3 and STAT5 proteins [3]: reduced
IC50 ([2]; sample MF 18 (JAK2), fedratinib alone, read-out: IC50 FEDR): 0.146 µM
IC50 ([2]; sample MF 22 (WT), fedratinib alone, read-out: IC50 FEDR): 0.309 µM
IC50 ([2]; sample MF 29 (JAK2), fedratinib alone, read-out: IC50 FEDR): 0.472 µM
IC50 ([2]; sample MF 31 (CALR), fedratinib alone, read-out: IC50 FEDR): 0.908 µM
IC50 ([2]; sample MF 33 (CALR), fedratinib alone, read-out: IC50 FEDR): 0.93 µM
IC50 ([2]; sample MF 38 (WT), fedratinib alone, read-out: IC50 FEDR): 0.931 µM
IC50 ([2]; sample MF 54 (JAK2), fedratinib alone, read-out: IC50 FEDR): 0.381 µM
IC50 ([2]; sample MF 63 (CALR), fedratinib alone, read-out: IC50 FEDR): 0.779 µM
IC50 ([2]; sample MF 76 (JAK2), fedratinib alone, read-out: IC50 FEDR): > 1 µM
IC50 ([2]; sample MF 77 (JAK2), fedratinib alone, read-out: IC50 FEDR): 0.695 µM
phosphorylation of STAT3/5 [4]: blocked
survival, WBC counts, hematocrit, splenomegaly, and fibrosis [4]: improved

IC50 ([2]; 336 h, range among 10 primary human myelofibrosis samples, 14 days, read-out: IC50 values for inhibition of colonies): 0.00125 to 0.00446 µM
IC50 ([2]; 336 h, sample MF 18 (JAK2), single agent, colony formation 14 days, read-out: IC50 Compound (I)): 0.00158 µM
IC50 ([2]; 336 h, sample MF 22 (WT), single agent, colony formation 14 days, read-out: IC50 Compound (I)): 0.0037 µM
IC50 ([2]; 336 h, sample MF 29 (JAK2), single agent, colony formation 14 days, read-out: IC50 Compound (I)): 0.00256 µM
IC50 ([2]; 336 h, sample MF 31 (CALR), single agent, colony formation 14 days, read-out: IC50 Compound (I)): 0.00202 µM
IC50 ([2]; 336 h, sample MF 33 (CALR), single agent, colony formation 14 days, read-out: IC50 Compound (I)): 0.00446 µM
IC50 ([2]; 336 h, sample MF 38 (WT), single agent, colony formation 14 days, read-out: IC50 Compound (I)): 0.00211 µM
IC50 ([2]; 336 h, sample MF 54 (JAK2), single agent, colony formation 14 days, read-out: IC50 Compound (I)): 0.00125 µM
IC50 ([2]; 336 h, sample MF 63 (CALR), single agent, colony formation 14 days, read-out: IC50 Compound (I)): 0.0026 µM
IC50 ([2]; 336 h, sample MF 76 (JAK2), single agent, colony formation 14 days, read-out: IC50 Compound (I)): 0.00343 µM
IC50 ([2]; 336 h, sample MF 77 (JAK2), single agent, colony formation 14 days, read-out: IC50 Compound (I)): 0.00127 µM
Cmax ([5]; dose 0.75 mg): 272 nM
Cmax ([5]; dose 1.25 mg): 577 nM
Cmax ([5]; dose 2.0 mg): 892 nM
Cmax ([5]; human, in vivo, dose 3.0 mg): 1200 nM
Cmax ([5]; human, in vivo, dose 4.5 mg): 1840 nM
half-life ([5]; in vivo, single dose, 5 days on/2 days off schedule, human, read-out: terminal half-life (converted)): ~64 h
Compound: Cc1nnn(C)c1-c1cnc2c3ccc(C(C)(C)O)cc3n([C@H](c3ccccc3)C3CCOCC3)c2c1 [Compound (I)]
therapeutic index (TI) ([2]; in 7 out of 10 MF samples, ratio of IC50 in MF sample and average IC50 in normal bone marrow CD34+ cells): > 1 fold
IC50 (HEL92.1.7 cells [6]; HEL 92.1.7, 72 h, Day 3, read-out: single agent IC50): 0.015 µM
IC50 (HEL92.1.7 cells [6]; HEL 92.1.7, 120 h, Day 5, read-out: single agent IC50): 0.019 µM
activity compared to CPI-0610 (HEL92.1.7 cells [6]; viability): better activity
IC50 (SET-2 cells [7]; 72 h, Day 3, read-out: single agent IC50): 0.0028 µM
IC50 (SET-2 cells [7]; 120 h, Day 5, read-out: single agent IC50): 0.0024 µM
activity compared to CPI-0610 (SET-2 cells [7]; viability): better activity
IC50 ([8]; read-out: IC50 for inhibition of BFU-E): ~0.0023 µM
IC50 ([8]; CFU-GM, read-out: IC50 for inhibition of CFU-GM): ~0.003 µM
IC50 (HEL92.1.7 cells [9]; Homo sapiens, HEL 92.1.7, 72 h): 0.0062 µM
IC50 (HEL92.1.7 cells [9]): 0.0056 µM
cytotoxic vs cytostatic effect (HEL92.1.7 cells [9]; CTG signal vs Day 0): cytotoxic effects
IC50 (SET-2 cells [10]; Homo sapiens, 72 h, 3 days incubation, CTG): 0.0019 µM
cytotoxic vs cytostatic effect (SET-2 cells [10]; CTG signal vs Day 0): cytotoxic effects
